# Source: patent US10913753B2, “Thienopyridine carboxamides as ubiquitin-specific protease inhibitors” (FORMA Therapeutics, Inc., priority 2016, dated 2021)
# What was measured:
# USP28 = USP28 (Homo sapiens (Human), UniProt Q96RU2); experiment: Ubiquitin-Rhodamine 110 Assay for USP28 Activity; assay type: biochemical
# Method: The assay was performed in a final volume of 20 μL in assay buffer containing 20 mM Tris-HCl (pH 8.0, (1M Tris-HCl, pH 8.0 solution; Corning 46-031-CM)), 2 mM CaCl2 (1M Calcium Chloride solution; Sigma #21114) 2 mM BME (2-Mercaptoethanol; Sigma 63689-25ML -F), 0.01% Prionex (0.22 μM filtered, Sigma #G-0411), and 0.01% Triton X-100. Stock compound solutions were stored at −20° C. as 10 mM in DMSO. Up to 1 month prior to the assay, 2 mM test compounds were pre-dispensed into assay plates (Black, low volume; Corning #3820) and frozen at −20° C. Prestamped assay plates were allowed to come to room temperature on the day of the assay. For the screen, 100 nL of 2 mM was pre-dispensed for a final screening concentration of 10 μM (DMSO(fc)=0.5%). […] Plates were incubated stacked for 90 minutes at room temperature before fluorescence was read on the Envision (Excitation at 485 nm and Emission at 535 nm; Perkin Elmer) or on the PheraSTAR (Excitation at 485 nm and Emission at 535 nm; BMG Labtech).
# For follow-up studies, the assay was performed in a final volume of 15 μL in assay buffer containing 20 mM Tris-HCl (pH 8.0, (1M Tris-HCl, pH 8.0 solution; Corning 46-031-CM)), 3 mM BME (2-Mercaptoethanol; Sigma 63689-25ML-F), 0.03% BGG (0.22 μM filtered, Sigma, G7516-25G), and 0.01% Triton X-100 (Sigma, T9284-10L). Nanoliter quantities of either an 8-point or 10-point, 3-fold serial dilution in DMSO was pre-dispensed into assay plates (Perkin Elmer, ProxiPlate-384 F Plus) for a final test concentration of either 25 μM to 11 nM or 25 μM to 1.3 nM, respectively. Enzyme USP28, construct USP28 (USP28-5(1-1077)-TEV-6*His; LifeSensors) concentration and incubation times were optimized for the maximal signal-to -background while maintaining initial velocity conditions at a fixed substrate concentration. The final concentration of the enzyme in the assay was 75 pM. […] 5 μL of 2× enzyme was added to assay plates (pre-stamped with compound) preincubated with USP28 for 30 minutes and then 5 μL of 2× Ub-Rh110 was added to assay plates. Plates were incubated stacked for 20 min at room temperature before 5 μL of stop solution was added (final concentration of 10 mM citric acid (Sigma, 251275-500G)). Fluorescence was read on the Envision (Excitation at 485 nm and Emission at 535 nm; Perkin Elmer) or on the PheraSTAR (Excitation at 485 nm and Emission at 535 nm; BMG Labtech).
# (§1) For both the USP28 and USP25 assay formats, data were reported as percent inhibition compared with control wells based on the following equation: % inh=1-((FLU-AveLow)/(AveHigh−AveLow)) where FLU=measured Fluorescence, AveLow=average Fluorescence of no enzyme control (n=16), and AveHigh=average Fluorescence of DMSO control (n=16). IC50 values were determined by curve fitting of the standard 4 parameter logistic fitting algorithm included in the Activity Base software package: IDBS XE Designer Model205. Data is fitted using the Levenburg Marquardt algorithm.
# USP25 = USP25 (Homo sapiens (Human), UniProt Q9UHP3); experiment: Ubiquitin-Rhodamine 110 Assay for USP25 Activity; assay type: biochemical
# Chain of USP25 (Q9UHP3 whole entry): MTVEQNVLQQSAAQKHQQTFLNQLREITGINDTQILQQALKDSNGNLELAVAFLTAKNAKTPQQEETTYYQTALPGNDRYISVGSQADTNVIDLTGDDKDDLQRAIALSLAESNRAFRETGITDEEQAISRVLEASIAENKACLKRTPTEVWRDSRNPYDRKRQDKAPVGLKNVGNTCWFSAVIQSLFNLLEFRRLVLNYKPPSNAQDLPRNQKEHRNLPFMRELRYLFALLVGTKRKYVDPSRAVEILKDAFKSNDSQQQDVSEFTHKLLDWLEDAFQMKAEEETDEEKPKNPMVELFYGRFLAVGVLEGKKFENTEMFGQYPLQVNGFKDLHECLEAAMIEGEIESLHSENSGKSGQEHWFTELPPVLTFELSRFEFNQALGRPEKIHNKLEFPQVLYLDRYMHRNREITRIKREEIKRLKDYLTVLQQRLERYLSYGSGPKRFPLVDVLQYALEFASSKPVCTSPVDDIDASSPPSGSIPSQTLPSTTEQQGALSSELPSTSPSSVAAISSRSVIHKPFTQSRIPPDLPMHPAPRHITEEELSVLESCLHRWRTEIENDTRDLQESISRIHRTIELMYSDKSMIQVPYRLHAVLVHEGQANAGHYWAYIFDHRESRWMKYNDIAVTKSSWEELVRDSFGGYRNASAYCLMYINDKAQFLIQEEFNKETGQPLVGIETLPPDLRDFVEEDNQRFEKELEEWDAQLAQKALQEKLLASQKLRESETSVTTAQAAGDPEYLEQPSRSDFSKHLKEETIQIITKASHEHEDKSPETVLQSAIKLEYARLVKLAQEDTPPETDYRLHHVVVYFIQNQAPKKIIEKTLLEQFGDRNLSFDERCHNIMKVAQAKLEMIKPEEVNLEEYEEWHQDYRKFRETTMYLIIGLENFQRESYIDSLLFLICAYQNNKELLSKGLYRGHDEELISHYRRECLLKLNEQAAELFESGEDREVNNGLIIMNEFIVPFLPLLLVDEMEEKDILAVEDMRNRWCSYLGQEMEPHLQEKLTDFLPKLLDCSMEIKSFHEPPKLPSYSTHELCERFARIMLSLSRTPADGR
# Method: The assay was performed in a final volume of 9 μL in assay buffer containing 20 mM Tris-HCl (pH 8.0, (1M Tris-HC1, pH 8.0 solution; Corning 46-031-CM)), 3 mM BME (2-Mercaptoethanol; Sigma 63689-25ML-F), 0.03% BGG (0.22 μM filtered, Sigma, G7516-25G), and 0.01% Triton X-100 (Sigma, T9284-10L). Nanoliter quantities of 10-point, 3-fold serial dilution in DMSO was pre-dispensed into 1536 assay plates (Corning, #3724BC) for a final test concentration of 25 μM to 1.3 nM, top to lowest dose, respectively. Enzyme USP25, construct USP25-His6, (Boston Biochem E-546). Concentration and incubation times were optimized for the maximal signal-to-background while maintaining initial velocity conditions at a fixed substrate concentration. The final concentration of the enzyme in the assay was 75 pM. […] 3 μL of 2× enzyme was added to assay plates (pre-stamped with compound) preincubated with […] for 30 minutes and then 3 μL of 2× Ub-Rh110 was added to assay plates. Plates were incubated for 45 minutes at room temperature before addition of 3 μL of stop solution (final concentration of 10 mM citric acid (Sigma, 251275-500G)). Fluorescence was read on the Envision (Excitation at 485 nm and Emission at 535 nm; Perkin Elmer) or on the PheraSTAR (Excitation at 485 nm and Emission at 535 nm; BMG Labtech).
# as §1
# Chain of USP28 (Q96RU2 whole entry): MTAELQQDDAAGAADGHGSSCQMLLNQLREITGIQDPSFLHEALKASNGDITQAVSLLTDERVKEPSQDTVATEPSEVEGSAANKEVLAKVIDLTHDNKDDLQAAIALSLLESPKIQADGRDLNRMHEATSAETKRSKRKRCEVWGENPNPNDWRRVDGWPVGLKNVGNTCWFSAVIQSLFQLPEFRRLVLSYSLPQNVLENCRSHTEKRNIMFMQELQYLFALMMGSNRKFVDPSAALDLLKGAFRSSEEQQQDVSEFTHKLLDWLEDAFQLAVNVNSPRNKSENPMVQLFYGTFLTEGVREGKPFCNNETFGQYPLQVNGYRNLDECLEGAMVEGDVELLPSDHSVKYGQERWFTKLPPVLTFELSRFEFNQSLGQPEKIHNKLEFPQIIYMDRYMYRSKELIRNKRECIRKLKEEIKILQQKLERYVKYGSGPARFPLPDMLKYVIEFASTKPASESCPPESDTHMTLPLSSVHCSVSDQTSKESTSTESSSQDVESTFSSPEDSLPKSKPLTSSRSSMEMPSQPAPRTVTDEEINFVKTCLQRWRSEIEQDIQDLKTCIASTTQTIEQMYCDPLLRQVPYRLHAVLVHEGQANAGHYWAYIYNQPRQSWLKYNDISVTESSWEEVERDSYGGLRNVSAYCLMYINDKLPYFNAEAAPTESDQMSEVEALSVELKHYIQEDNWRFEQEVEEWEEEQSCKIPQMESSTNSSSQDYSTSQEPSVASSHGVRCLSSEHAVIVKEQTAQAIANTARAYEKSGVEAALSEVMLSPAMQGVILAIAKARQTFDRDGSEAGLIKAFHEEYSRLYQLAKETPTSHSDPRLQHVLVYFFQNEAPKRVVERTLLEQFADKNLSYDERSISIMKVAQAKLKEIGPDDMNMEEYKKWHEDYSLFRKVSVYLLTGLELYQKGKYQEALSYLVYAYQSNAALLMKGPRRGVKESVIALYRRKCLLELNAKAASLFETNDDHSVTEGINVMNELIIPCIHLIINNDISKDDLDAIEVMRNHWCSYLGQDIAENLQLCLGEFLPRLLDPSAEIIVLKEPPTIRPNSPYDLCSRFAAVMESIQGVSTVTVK
SMILES,IC50 (USP28),IC50 (USP25)
Cc1ccc2c(N)c(C(=O)NCCc3ccc(N4CC5CNCC(C4)O5)cc3)sc2n1 [Compound I-66],< 200 nM,
Cc1ccc2c(N)c(C(=O)NCCc3cccc(C(=O)O)c3)sc2n1 [Example I-175],2000 to 10000 nM,2000 to 10000 nM
Cc1ccc2c(N)c(C(=O)NCCc3cc(F)c(N4C[C@H]5CCN[C@H]5C4)cc3F)sc2n1 [Example I-96],< 200 nM,200 to 2000 nM
"Cc1nc2sc(C(=O)NC[C@H](C)c3ccc(N4CC5CCC(C4)N5)c(F)c3)c(N)c2cc1F (single isomer, unassigned) [Example I-108]",200 to 2000 nM,200 to 2000 nM
"Cc1ccc2c(N)c(C(=O)NCCc3ccc(N4CCNCC4)c(C)c3)sc2n1 [Example I-74, 3-Amino-6-methyl-N-(3-methyl-4-(piperazin-1-yl)phenethyl)thieno[2,3-b]pyridine-2-carboxamide]",< 200 nM,
"Cc1ccc2c(N)c(C(=O)NC[C@H](C)c3ccc(N4CC5CCC(C4)N5)c(C#N)c3)sc2n1 (single isomer, unassigned) [Example I-110]",200 to 2000 nM,2000 to 10000 nM
Nc1c(C(=O)NCCc2cc(F)c(N3CC4CCC(C3)N4)cc2F)sc2ncc(F)cc12 [Compound I-69],< 200 nM,200 to 2000 nM
"Cc1ccc2c(N)c(C(=O)NCCc3ccc(C(=O)O)cc3)sc2n1 [Example I-173, 4-(2-(3-Amino-6-methylthieno[2,3-b]pyridine-2-carboxamido)ethyl)benzoic acid]",200 to 2000 nM,200 to 2000 nM
Cc1ccc2c(N)c(C(=O)NCCc3ccc(N4CC5CC(C4)N5)cc3)sc2n1 [Compound I-65],< 200 nM,< 200 nM
Cc1ccc2c(N)c(C(=O)NCCc3ccc(-n4ncc5c4CNC5)cc3)sc2n1 [Compound I-38],200 to 2000 nM,2000 to 10000 nM
Cc1ccc2c(N)c(C(=O)NCCc3ccc(N4CCn5cncc5C4)cc3)sc2n1 [Example I-120],< 200 nM,
"Cc1ccc2c(N)c(C(=O)NCCc3ccc([C@H]4CCNC4)cc3)sc2n1 (single isomer, unassigned) [Example I-180]",< 200 nM,200 to 2000 nM
Cc1ccc2c(N)c(C(=O)NCCc3ccc(N4CCNCC4)c(C4CC4)c3)sc2n1 [Compound I-6],< 200 nM,200 to 2000 nM
Cc1ccc2c(N)c(C(=O)NCCc3cc(F)c(N4CCNCC4)c(Cl)c3)sc2n1 [Compound I-8],< 200 nM,
Cc1nc2sc(C(=O)NCCc3ccc(N4CC5CCC(C4)N5)c(C#N)c3)c(N)c2cc1F [Compound I-71],200 to 2000 nM,200 to 2000 nM
COc1nc2sc(C(=O)NCCc3cc(F)c(N4CCNCC4)cc3F)c(N)c2cc1F [Compound I-68],200 to 2000 nM,2000 to 10000 nM
Cc1ccc2c(N)c(C(=O)NCCc3ccc(C4CCNCC4)cc3F)sc2n1 [Compound I-170],< 200 nM,200 to 2000 nM
Cc1ccc2c(N)c(C(=O)NCCc3ccc(N4CCNCC4)c(-c4ccccc4)c3)sc2n1 [Compound I-23],200 to 2000 nM,2000 to 10000 nM
Nc1c(C(=O)NCCc2ccc(N3CCNCC3)cc2)sc2ncc(C(F)F)cc12 [Compound I-27],2000 to 10000 nM,10000 to 25000 nM
Cc1nc2sc(C(=O)NCCc3cc(F)c(N4CCNCC4)cc3F)c(N)c2cc1F [Compound I-46],200 to 2000 nM,
"Nc1c(C(=O)NCCc2ccc(N3CCNCC3)cc2)sc2nc(C3CC3)ccc12 [Example I-114, 3-Amino-6-cyclopropyl-N-(4-(piperazin-1-yl)phenethyl)thieno[2,3-b]pyridine-2-carboxamide]",< 200 nM,
Cc1ccc2c(N)c(C(=O)NCCc3cc(F)c(N4CC5CCC(C4)N5)c(F)c3)sc2n1 [Compound I-45],< 200 nM,

SMILES,IC50 (USP28),IC50 (USP25)
Nc1c(C(=O)NCCc2ccc(N3CCNCC3)c(Cl)c2)sc2ncc(F)cc12 [Compound I-39],2000 to 10000 nM,
Cc1cnc2sc(C(=O)NCCc3ccc(N4CCNCC4)c(Cl)c3)c(N)c2c1 [Compound I-32],2000 to 10000 nM,
Cc1ccc2c(N)c(C(=O)NCCc3ccc(N4CC[C@@H](N(C)C)C4)cc3)sc2n1 [Example I-117],200 to 2000 nM,
Cc1ccc2c(N)c(C(=O)NC[C@@H](C)c3cc(F)c(N4CCNCC4)cc3F)sc2n1 [Example I-207],200 to 2000 nM,
Cc1nc2sc(C(=O)NCCc3ccc(N4CCNCC4)c(Cl)c3)c(N)c2cc1F [Compound I-9],200 to 2000 nM,
Cc1ccc2c(N)c(C(=O)NCCc3cc(F)c(N4CCNCC4)c(F)c3F)sc2n1 [Compound I-35],< 200 nM,
"Cc1ccc2c(N)c(C(=O)NCCc3cc(F)c(N4CCN[C@H](C)C4)cc3F)sc2n1 [Example I-209, (R)-3-amino-N-(2,5-difluoro-4-(3-methylpiperazin-1-yl)phenethyl) -6-methylthieno[2,3-b]pyridine-2-carboxamide]",10000 to 25000 nM,
Cc1ccc2c(N)c(C(=O)NCCc3c(F)cc(N4CCNCC4)cc3F)sc2n1 [Compound I-42],200 to 2000 nM,
CN[C@@H]1CCN(c2cc(F)c(CCNC(=O)c3sc4nc(C)ccc4c3N)cc2F)C1 [Compound I-49],< 200 nM,
CCc1nc2sc(C(=O)NCCc3cc(F)c(N4CCNCC4)cc3F)c(N)c2cc1F [Compound I-55],< 200 nM,
Nc1c(C(=O)NCCc2ccc(N3CCNCC3)cc2)sc2nc(Cl)ccc12 [Compound I-57],200 to 2000 nM,
COc1ccc2c(N)c(C(=O)NCCc3cc(F)c(N4CCNCC4)cc3F)sc2n1 [Compound I-51],< 200 nM,
CN[C@H]1CCN(c2cc(F)c(CCNC(=O)c3sc4nc(C)ccc4c3N)cc2F)C1 [Compound I-50],200 to 2000 nM,
CNc1ccc2c(N)c(C(=O)NCCc3ccc(N4CCNCC4)cc3)sc2n1 [Example I-187],200 to 2000 nM,
"Cc1ccc2c(N)c(C(=O)NC[C@H](C)c3ccc(N4CCNCC4)cc3)sc2n1 (single isomer, unassigned) [Example I-202]",200 to 2000 nM,
Cc1ccc2c(N)c(C(=O)NCCc3cc(F)c(N4CCNCC4)c(F)c3)sc2n1 [Compound I-4],< 200 nM,
Cc1ccc2c(N)c(C(=O)NCCc3ccc(N4CC[C@H](N(C)C)C4)cc3)sc2n1 [Example I-118],200 to 2000 nM,
Cc1ccc2c(N)c(C(=O)NCCc3ccc(N4CCNCC4)c(C(F)(F)F)c3)sc2n1 [Compound I-3],200 to 2000 nM,
"Cc1ccc2c(N)c(C(=O)NCCc3cc(F)c(C4CCNCC4)cc3F)sc2n1 [Example I-113, 3-Amino-N-(2,5-difluoro-4-(piperidin-4-yl)phenethyl)-6-methylthieno[2,3-b]pyridine-2-carboxamide]",< 200 nM,
Cc1ccc2c(N)c(C(=O)NCCc3ccc(N4CCN(CCN5CCCC5)CC4)cc3)sc2n1 [Example I-119],2000 to 10000 nM,
Cc1ccc2c(N)c(C(=O)NCCc3ccc(-n4ncc5c4CNC5)c(F)c3)sc2n1 [Example I-80],2000 to 10000 nM,
